Data taken from patent publication US10562843B2 (The United States of America, as represented by the …, priority 2006, dated 2020).
Where a name gives a salt, the structure may show the parent alone. Read-outs that look alike come from different tables or passages of the source.

Tests used:
[1] = tested on: freshly isolated adult rat cardiomyocytes; test: Cardiomyocyte contractility, dose-response; type: cell-based; settings: for maximum contractile response: 10^−8 to 10^−5 M; for EC50: contractility dose-response
Protocol: All studies were performed within 8 hours of cell isolation.
The cells were placed on the stage of an inverted microscope (Zeiss model IM-35, Zeiss, Thornwood, N.Y.), perfused with the HEPES-buffered solution at a flow rate of 1.8 mL/minutes, and electrically stimulated at 0.5 Hz at 23° C. Cell length was monitored by an optical edge-tracking method using a photodiode array (Model 1024 SAQ, Reticon, Boston, Mass.) with a 3 ms time resolution. Cell contraction was measured by the percent shortening of cell length following electrical stimulation.

[2] = tested on: single ventricular myocytes; test: Cardiomyocyte contractility, single dose, with and without ICI 118,551; type: cell-based
Protocol: In these studies, the contraction amplitude indexed by electrical pacing induced shortening of cell length was measured in single ventricular myocytes before and after exposure to a single dose of the test compounds.

[3] = molecular target: human β2-AR (Homo sapiens, UniProt P07550)
[4] = IV 5 mg/kg; for Average plasma concentration: average of rats
[5] = in vivo; settings: male, Sprague-Dawley, rat, plasma, iv, 5 mg/kg
[6] = Average plasma concentration, average of rats, IV 5 mg/kg
[7] = Individual plasma concentration, individual rat, IV 5 mg/kg

Chain of human β2-AR (P07550 whole entry): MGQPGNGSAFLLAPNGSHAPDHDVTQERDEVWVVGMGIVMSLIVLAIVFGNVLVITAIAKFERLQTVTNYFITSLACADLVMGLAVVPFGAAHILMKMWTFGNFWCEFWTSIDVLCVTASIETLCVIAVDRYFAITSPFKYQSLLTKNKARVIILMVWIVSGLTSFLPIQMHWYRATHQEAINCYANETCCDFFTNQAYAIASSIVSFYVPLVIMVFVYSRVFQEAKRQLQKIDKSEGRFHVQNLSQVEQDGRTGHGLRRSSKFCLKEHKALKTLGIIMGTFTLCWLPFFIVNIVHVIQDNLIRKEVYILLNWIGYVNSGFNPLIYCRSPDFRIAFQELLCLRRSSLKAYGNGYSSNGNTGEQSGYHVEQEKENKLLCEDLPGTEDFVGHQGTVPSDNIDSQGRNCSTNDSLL

## C[C@@H](Cc1ccc(O)cc1)NC[C@@H](O)c1cc(O)cc(O)c1 [(S,S)-1, (S,S)-(+)-Fenoterol]
[1]
  inotropic effect: only a minor positive inotropic effect
[2]; single dose, ICI 118,551 10^−7 mol/L
  contractile response: no observed pharmacological effect

## C[C@H](Cc1cccc2ccccc12)NC[C@@H](O)c1cc(O)cc(O)c1.O=C(O)/C=C/C(=O)O (racemic) [(S,R)-5, (S,R)-(+)-5-{1-hydroxy-2-[1-methyl-2-(1-naphthyl)ethylamino]ethyl}-1,3-benzenediol fumarate]
[3]
  Ki β1/Ki β2: 19

## C[C@@H](Cc1cccc2ccccc12)NC[C@H](O)c1cc(O)cc(O)c1.O=C(O)/C=C/C(=O)O [(R,S)-5, (R,S)-(−)-5-{1-hydroxy-2-[1-methyl-2-(1-naphthyl)ethylamino]ethyl}-1,3-benzenediol fumarate]
[3]
  Ki β1/Ki β2: 46
[2]
  concentration eliciting maximum effect: 0.1 µM
[4]; rat
  systemic exposure (AUC) and clearance compared to (R,R)-fenoterol: significantly higher systemic exposure (AUC) and longer clearance

## C[C@H](Cc1ccc(O)cc1)NC[C@H](O)c1cc(O)cc(O)c1 [(R,R)-1, (R,R)-(−)-Fenoterol]
[1]
  maximum contractile response: 306±11.8 % resting cell length
  EC50: −7.1±0.2 log [M]
[4]; 5 min
  Average plasma concentration: 1.34 µg/mL
[4]; 15 min
  Average plasma concentration: 0.36 µg/mL
[4]; 30 min
  Average plasma concentration: 0.34 µg/mL
[4]; 60 min
  Average plasma concentration: 0.05 µg/mL
[4]; 120 min
  Average plasma concentration: 0.02 µg/mL
[4]; 240 min
  Average plasma concentration: 0.01 µg/mL
[4]; 300 min
  Average plasma concentration: 0.005 µg/mL
[4]; 360 min
  Average plasma concentration: 0.06 µg/mL
[4]; rat, two-compartment open model
  AUC: 29.6861 µg·min/mL

## C[C@H](Cc1cccc2ccccc12)NC[C@H](O)c1cc(O)cc(O)c1.O=C(O)/C=C/C(=O)O [(R,R)-5, (R,R)-(−)-5-{1-hydroxy-2-[1-methyl-2-(1-naphthyl)ethylamino]ethyl}-1,3-benzenediol fumarate]
[3]
  Ki β1/Ki β2: 14
[2]
  concentration eliciting maximum effect: 0.1 µM

## COc1ccc(C[C@@H](C)NC[C@H](O)c2cc(O)cc(O)c2)cc1 [(R,R)-2, (R,R)-(−)-1-p-Methoxyphenyl-2-(β-3′,5′-dihydroxy-phenyl-β-oxy)ethylamino-propane Fumarate]
[5]
  AUC: 1600 ng·h/mL
  Vd: 2.19 L
  clearance: 15.4 mL/min
  half-life: 13.2 min
[5]; [6]
  concentration at 5 min: 2120 ng/mL
  concentration at 15 min: 580 ng/mL
  concentration at 30 min: 410 ng/mL
  concentration at 60 min: 260 ng/mL
  concentration at 120 min: 170 ng/mL
  concentration at 300 min: 70 ng/mL
  concentration at 360 min: 60 ng/mL
[5]; Average plasma concentration, average of rats, IV 5 mg/kg, 240 min
  concentration at 240 min: 120 ng/mL
[5]; [7]
  concentration at 5 min: 1940 ng/mL
  concentration at 15 min: 480 ng/mL
  concentration at 30 min: 310 ng/mL
  concentration at 60 min: 230 ng/mL
  concentration at 120 min: 140 ng/mL
  concentration at 300 min: 60 ng/mL
  concentration at 360 min: 50 ng/mL
[4]; rat
  systemic exposure (AUC) and clearance compared to (R,R)-fenoterol: significantly higher systemic exposure (AUC) and longer clearance

## CC(Cc1ccc(O)cc1)NCC(O)c1ccc(O)c(O)c1 (racemic) [(±)-fenoterol, 5-[1-hydroxy-2[[2-(4-hydroxyphenyl)-1-methylethyl]-amino]ethyl]1,2-benzenediol, reference compound]
[1]
  maximum contractile response: 265±11.6 % resting cell length
[1]; Rattus norvegicus, Cardiomyocyte, read-out: EC50 (converted)
  EC50: 100 nM
